Earlier results in patent US20030167159A1, “Method for determining molecular surface areas and volumes” (California Institute of Technology, priority 2001, published 2003).
Where a SMILES comes first, the peptide text is derived from it.

What was measured:
Conditions in all cases: as reported in Bursulaya et al.
Trypsin (trp) = target: T1, Trypsin (trp) (Bos taurus, UniProt P00760)
T1 sequence (P00760 24-246): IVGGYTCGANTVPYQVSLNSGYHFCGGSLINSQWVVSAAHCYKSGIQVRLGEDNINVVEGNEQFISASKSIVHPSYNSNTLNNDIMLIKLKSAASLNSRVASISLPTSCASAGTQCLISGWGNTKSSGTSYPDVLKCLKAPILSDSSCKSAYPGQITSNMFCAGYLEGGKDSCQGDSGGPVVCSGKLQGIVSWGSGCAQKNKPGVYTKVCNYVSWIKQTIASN

[1] = target: T2, L-Arabinose binding protein (ara) (Escherichia coli, UniProt P02924)
T2 sequence (P02924 24-329): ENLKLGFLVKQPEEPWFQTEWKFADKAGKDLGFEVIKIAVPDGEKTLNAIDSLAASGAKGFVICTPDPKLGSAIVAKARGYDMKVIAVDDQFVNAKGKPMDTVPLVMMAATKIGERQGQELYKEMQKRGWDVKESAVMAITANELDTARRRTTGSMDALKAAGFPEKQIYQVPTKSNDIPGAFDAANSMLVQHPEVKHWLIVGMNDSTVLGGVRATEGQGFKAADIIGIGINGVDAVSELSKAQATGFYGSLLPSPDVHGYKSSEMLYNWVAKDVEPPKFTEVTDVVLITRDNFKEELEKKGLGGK

ε-Thrombin (ret) = target: T3, ε-Thrombin (ret) (Bos taurus, UniProt P00735)
T3 construct: ε-Thrombin (ret)

Intestinal FABP (fab) = target: T4, Intestinal FABP (fab) (Rattus norvegicus, UniProt P02693)
T4 sequence (P02693 1-132): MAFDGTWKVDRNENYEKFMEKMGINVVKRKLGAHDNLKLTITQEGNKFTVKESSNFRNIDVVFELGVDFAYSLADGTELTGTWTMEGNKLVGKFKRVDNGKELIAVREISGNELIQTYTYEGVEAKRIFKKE

Carboxypeptidase A (car) = target: T5, Carboxypeptidase A (car) (Bos taurus, UniProt P00730)
T5 sequence (P00730 111-419): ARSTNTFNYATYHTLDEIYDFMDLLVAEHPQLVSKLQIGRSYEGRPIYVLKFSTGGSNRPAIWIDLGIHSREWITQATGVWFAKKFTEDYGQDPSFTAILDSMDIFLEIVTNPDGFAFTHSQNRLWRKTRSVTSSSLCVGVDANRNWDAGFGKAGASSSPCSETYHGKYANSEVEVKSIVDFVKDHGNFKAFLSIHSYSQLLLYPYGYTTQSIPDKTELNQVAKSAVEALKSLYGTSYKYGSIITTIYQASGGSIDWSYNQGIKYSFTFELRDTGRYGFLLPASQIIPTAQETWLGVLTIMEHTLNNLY

[2] = target: T6, Cytochrome P-450cam (cyt) (Pseudomonas putida, UniProt P00183)
T6 sequence (P00183 1-415): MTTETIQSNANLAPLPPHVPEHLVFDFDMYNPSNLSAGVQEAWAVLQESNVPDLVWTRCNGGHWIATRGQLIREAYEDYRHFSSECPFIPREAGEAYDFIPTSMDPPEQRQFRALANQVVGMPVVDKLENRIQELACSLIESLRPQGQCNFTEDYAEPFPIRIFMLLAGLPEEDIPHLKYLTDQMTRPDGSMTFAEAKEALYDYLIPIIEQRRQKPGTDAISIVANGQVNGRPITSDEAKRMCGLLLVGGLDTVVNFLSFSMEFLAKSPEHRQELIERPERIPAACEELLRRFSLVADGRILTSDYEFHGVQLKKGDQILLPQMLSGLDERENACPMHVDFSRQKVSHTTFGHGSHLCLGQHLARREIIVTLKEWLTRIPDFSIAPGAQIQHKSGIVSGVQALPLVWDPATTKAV

In the case of N[C@H]1C[C@@H]1c1ccccc1 [1tnl], the “percentage of ligands in the 10037-compound database that score better than the co-crystal ligand, DOCK” value (“percentage of ligands … DOCK” below) (Trypsin (trp)) is listed as 82.9%, the “percentage of ligands in the 10037-compound database that score better than the co-crystal ligand, FlexX” value (from here on “percentage of ligands … FlexX”) (Trypsin (trp)) is listed as 39.1% and the “percentage of ligands in the 10037-compound database that score better than the co-crystal ligand, ICM” value (“percentage of ligands … ICM” below) (Trypsin (trp)) is listed as 51.6%.

In the case of C[C@H]1O[C@H](O)[C@H](O)[C@@H](O)[C@H]1O [1abf], the “percentage of ligands … DOCK” value [1] is listed as 1.2%, the “percentage of ligands … FlexX” value [1] is listed as 0.2% and the “percentage of ligands … ICM” value [1] is listed as 0.03%.

In the case of Cc1ccc(S(=O)(=O)N[C@@H](Cc2ccc(C(=N)N)cc2)C(=O)N2CCCCC2)cc1 [1ett], the “percentage of ligands … DOCK” value (ε-Thrombin (ret); Dock) is listed as 0.9%, the “percentage of ligands … FlexX” value (ε-Thrombin (ret); FlexX) is listed as 9% and the “percentage of ligands … ICM” value (ε-Thrombin (ret); ICM) is listed as 0.06%.

In the case of OC[C@H]1OC(O)[C@H](O)[C@@H](O)[C@H]1O (stereo partly drawn) [5abp], the “percentage of ligands … DOCK” value [1] is given as 0.2%, the “percentage of ligands … FlexX” value [1] is given as 0.4% and the “percentage of ligands … ICM” value [1] is given as 0.02%.

In the case of NCCCc1ccccc1 [1tnk], the “percentage of ligands … DOCK” value (Trypsin (trp)) is listed as 58.1%, the “percentage of ligands … FlexX” value (Trypsin (trp)) is listed as 37.1% and the “percentage of ligands … ICM” value (Trypsin (trp)) is listed as 14.6%.

For CCCCCCCCCCCCCCCC(=O)O [2ifb], the “percentage of ligands … DOCK” value (Intestinal FABP (fab); Dock) is given as 7.1%, the “percentage of ligands … FlexX” value (Intestinal FABP (fab); FlexX) is given as 99.3% and the “percentage of ligands … ICM” value (Intestinal FABP (fab); ICM) is given as 0.5%.

In the case of NCCc1ccccc1 [1tnj], the “percentage of ligands … DOCK” value (Trypsin (trp)) is listed as 45.1%, the “percentage of ligands … FlexX” value (Trypsin (trp)) is listed as 47.9% and the “percentage of ligands … ICM” value (Trypsin (trp)) is listed as 1.1%.

For N=C(N)c1ccccc1 [3ptb], the “percentage of ligands … DOCK” value (Trypsin (trp)) is given as 20.3%, the “percentage of ligands … FlexX” value (Trypsin (trp)) is given as 14% and the “percentage of ligands … ICM” value (Trypsin (trp)) is given as 0.1%.

In the case of O=C(O)C[C@@H](Cc1ccccc1)C(=O)O [1cbx], the “percentage of ligands … DOCK” value (Carboxypeptidase A (car)) is listed as 36.8%, the “percentage of ligands … FlexX” value (Carboxypeptidase A (car)) is listed as 2.7% and the “percentage of ligands … ICM” value (Carboxypeptidase A (car)) is listed as 0.2%.

For CC12CCC(CC1=O)C2(C)C (stereo not drawn) [2cpp], the “percentage of ligands … DOCK” value ([2]; Dock) is given as 7.3%, the “percentage of ligands … FlexX” value ([2]; FlexX) is given as 12.6% and the “percentage of ligands … ICM” value ([2]; ICM) is given as 11.7%.

In the case of O[C@@H]1[C@@H](O)[C@@H](O)CO[C@H]1O [1abe], the “percentage of ligands … DOCK” value [1] is given as 0.5%, the “percentage of ligands … FlexX” value [1] is given as 0.2% and the “percentage of ligands … ICM” value [1] is given as 0.01%.

For NCC1CCCCC1 [1tng], the “percentage of ligands … DOCK” value (Trypsin (trp)) is given as 28.7%, the “percentage of ligands … FlexX” value (Trypsin (trp)) is given as 30.8% and the “percentage of ligands … ICM” value (Trypsin (trp)) is given as 0.3%.

In the case of NCC(=O)N[C@@H](Cc1ccc(O)cc1)C(=O)O [3cpa] (H-Gly-Tyr-OH), the “percentage of ligands … DOCK” value (Carboxypeptidase A (car)) is listed as 14.2%, the “percentage of ligands … FlexX” value (Carboxypeptidase A (car)) is listed as 1.4% and the “percentage of ligands … ICM” value (Carboxypeptidase A (car)) is listed as 0.3%.

In the case of Cc1ccc(S(=O)(=O)N[C@@H](Cc2cccc(C(=N)N)c2)C(=O)N2CCCCC2)cc1 [1pph], the “percentage of ligands … DOCK” value (Trypsin (trp)) is listed as 37%, the “percentage of ligands … FlexX” value (Trypsin (trp)) is listed as 0.6% and the “percentage of ligands … ICM” value (Trypsin (trp)) is listed as 0.3%.
